Converted amounts (≈) assume the structure as drawn. “Also recorded” adds a separate entry of the source. Where two headings read alike, the source gives them in different places.
How the values were obtained:
[1] = in vitro; type: cell-based; conditions: human, hff cells
Procedure: (§1) Human foreskin fibroblasts (HFF) are grown in a nutrient medium consisting of Eagle's minimal essential medium (EMEM) to which 10% fetal calf serum has been added.
(§2) The cell vitality is measured in an HFF cell culture using an MTT assay. The result is expressed as the TC50 value, which is the concentration at which 50% of the cells tested are still vital. In HFF cells, it is 435 μg/ml for the substances according to the invention.

[2] = system: cytomegaloviruses (CMV laboratory strain AD169); experiment: ELISA of production of CMV late antigens in HFF cells; type: cell-based; conditions: for therapeutic index: quotient TC50/IC50, HFF cells
Procedure: Antiviral activity: cells and viruses employed
as §1
The CMV laboratory strain AD169 is used. The viruses are propagated in EMEM nutrient medium to which 4% fetal calf serum has been added (maintenance medium). The virus titer is established by determining so-called immediate early antigen forming units (IEFUs) which are formed in the maintenance medium (Gerna et al. (1992), Antiviral Res. Vol. 19: 333-345).
The antiviral effect of the substances on the propagation of cytomegaloviruses is determined by different parameters:
In an ELISA (enzyme-linked immunosorbent assay), the production of CMV late antigens is determined. […] The substances according to the invention have an IC50 value of 4 μg/ml±1 μg/ml.

[3] = system: phospholipase D; conditions: cited from earlier work
[4] = cited from earlier work
[5] = system: phospholipase C; conditions: cited from earlier work
[6] = system: DTH (delayed type hypersensitivity) reaction; conditions: intraperitoneal, mice; cited from earlier work
[7] = system: antibody production; conditions: intraperitoneal, mice; cited from earlier work
[8] = system: B cells; conditions: in vitro; cited from earlier work
[9] = system: lymphocyte proliferation; experiment: phytohemagglutinin stimulated lymphocyte proliferation ([3H]-thymidine); type: cell-based
Procedure: For a proliferation assay, lymphocyte cultures were started in mixed lymphocyte cultures (MLC), or with 1% phytohemagglutinin (PHA), in a total volume of 200 μl of culture medium. 18 to 20 hours before the measurement, 0.1 μCi methyl-[^3 H]-thymidine (NEN, Germany) was added. Radiolabeled DNA was harvested on filter membranes (Schleicher & Schull, Germany). The radioactivity was quantified with a scintillation counter (Zinsser, Germany). The sample PBL pertains to peripheral blood lymphocytes as a control.

[10] = system: T cells; conditions: in vitro; cited from earlier work
[11] = system: Human foreskin fibroblasts (HFF); experiment: in vitro; type: cell-based; conditions: hff cells
Procedure: as §1, §2

[12] = system: viral DNA polymerases; conditions: cited from earlier work
[13] = system: hepatitis viruses; conditions: literature, cell cultures; cited from earlier work
[14] = system: viral reverse transcriptases; conditions: cited from earlier work
[15] = system: Varicella zoster viruses; conditions: literature; cited from earlier work
[16] = system: human cytomegaloviruses; conditions: literature; cited from earlier work
[17] = system: Epstein-Barr viruses; conditions: literature; cited from earlier work
[18] = system: Herpes simplex viruses; conditions: literature; cited from earlier work
[19] = mouse, in vivo; cited from earlier work
[20] = literature; cited from earlier work
[21] = Human betaherpesvirus 5, AD169, production of CMV late antigens, ELISA, HFF cells, read-out: inhibitory concentration IC50
[22] = production of CMV late antigens, ELISA, HFF cells

O=C(O)C[C@@H](NCCN[C@H](CC(=O)O)C(=O)O)C(=O)O [(R,R)-N,N'-ethylenediamine disuccinate]
CC50 [1]: ≥ 100 µg/mL | IC50 [2, 21]: 41 µg/mL | therapeutic index [2]: ≥ 2.2

O=C(O)C[C@H](NCCN[C@H](CC(=O)O)C(=O)O)C(=O)O [(R,S)-N,N'-ethylenediamine disuccinate]
CC50 [1]: ≥ 100 µg/mL | IC50 [2, 21]: 46 µg/mL | therapeutic index [2]: ≥ 2.2

O=C(O)CC[C@H](NCCN[C@@H](CCC(=O)O)C(=O)O)C(=O)O [(S,S)-N,N'-ethylenediamine diglutamate]
CC50 [1]: ≥ 100 µg/mL | IC50 [2, 21]: ≥ 100 µg/mL

O=C(O)C[C@H](NCCN[C@@H](CC(=O)O)C(=O)O)C(=O)O [(S,S)-N,N'-ethylenediamine disuccinate]
inhibition of phospholipase D [3]: inhibits | toxicity in mice [4]: relatively low | CC50 [1]: 435 µg/mL | inhibition of phospholipase C [5]: inhibits | DTH (delayed type hypersensitivity) reaction [6]: suppressed | antibody production [7]: suppressed | blastogenesis of B cells [8]: suppressed | immunosuppressive activity [9]: inhibition of phytohemagglutinin stimulated lymphocyte proliferation | blastogenesis of T cells [10]: suppressed | IC50 ([2]; Human betaherpesvirus 5, AD169, HFF, activity against cytomegaloviruses, read-out: IC50): 4 µg/mL | therapeutic index [2]: 109

CC(CN[C@@H](CCC(=O)O)C(=O)O)N[C@@H](CCC(=O)O)C(=O)O (stereo partly drawn) [(S,S)-N,N'-propylenediamine diglutamate]
toxic concentration TC50 [11]: ≥ 100 µg/mL | inhibitory concentration IC50 [2, 22]: ≥ 100 µg/mL

CC(CN[C@@H](CC(=O)O)C(=O)O)N[C@@H](CC(=O)O)C(=O)O (stereo partly drawn) [(S,S)-N,N'-propylenediamine disuccinate]
toxic concentration TC50 [11]: ≥ 100 µg/mL | inhibitory concentration IC50 [2, 22]: ≥ 100 µg/mL

O=C(O)P(=O)(O)O [Foscarnet]
inhibition of viral DNA polymerases [12]: inhibition | antiviral activity, hepatitis viruses [13]: selective activity | inhibition of viral reverse transcriptases [14]: inhibition | antiviral activity, Varicella zoster viruses [15]: selective activity | antiviral activity, cytomegaloviruses [16]: virostatic effect | resistance of cytomegaloviruses [16]: more resistant | antiviral activity, Epstein-Barr viruses [17]: selective activity | antiviral activity, Herpes simplex viruses [18]: selective activity

Nc1nc(O)c2ncn(COC(CO)CO)c2n1 [Ganciclovir]
tumor development [19]: observed to develop tumors | toxicity / side effects [20]: high side-effect level; also recorded: leads to neutropenia | antiviral activity, Varicella zoster viruses [15]: effective | resistance of cytomegaloviruses [16]: more resistant | antiviral activity, Epstein-Barr viruses [17]: effective | antiviral activity, Herpes simplex viruses [18]: effective

CC(=O)N(O)CCCCCNC(=O)CCC(=O)N(O)CCCCCNC(=O)CCC(=O)N(O)CCCCCN [desferrioxamine]
CC50 [1]: 12 µg/mL (≈ 21.4 µM) | toxicity / side effects [20]: low toxicity | antiviral activity, Varicella zoster viruses [15]: successfully used | antiviral activity, cytomegaloviruses [16]: successfully used | antiviral activity, Epstein-Barr viruses [17]: successfully used | IC50 [2, 21]: 4.1 µg/mL (≈ 7.31 µM) | therapeutic index [2]: 3 | antiviral activity, Herpes simplex viruses [18]: successfully used

O=C(O)CN(CCN(CC(=O)O)CC(=O)O)CCN(CC(=O)O)CC(=O)O [diethylenetriaminepentaacetic acid]
CC50 [1]: 123 µg/mL (≈ 313 µM) | IC50 [2, 21]: 4 µg/mL (≈ 10.2 µM) | therapeutic index [2]: 31

(R,R)-N,N'-propylenediamine disuccinate
toxic concentration TC50 [11]: ≥ 100 µg/mL | inhibitory concentration IC50 [2, 22]: ≥ 100 µg/mL

Reference: patent US6140367A, “Use of ethylene diamine disuccinate for preparing a medicament with antiviral properties” (priority 1996, dated 2000)
